# Assay: Stability Identification-Content Measurement (HPLC content after storage in HDPE bottle)
# Assay type: physicochemical
# Experimental: 80 mg of the novel crystalline form of the compound prepared in Example 2 and 80 mg of a standard product with a purity of 99.9% prepared by the process described in Example 2 were accurately weighed, placed in 100 ml volumetric flasks, and dissolved in dimethylformamide. The volumes of the solutions were adjusted to the marked lines of the flasks to prepare test solutions and standard solutions, respectively. Each of the solutions was analyzed by column chromatography under the following conditions: • Column: Zorbax Rx C8 (4.6 mm×250 mm, 5 μm) or its equivalent • Mobile Phase (0.05 M ammonium acetate buffer (pH=5.0)/acetonitrile/tetrahydrofuran) Mobile Phase A: • 0.05 M ammonium acetate buffer (pH=5.0)/acetonitrile/tetrahydrofuran (67/21/12) Mobile Phase B: • 0.05M ammonium acetate buffer (pH=5.0)/acetonitrile/tetrahydrofuran (54/34/12) • Detector: UV absorption spectrophotometer (wavelength: 244 nm) • Flow Rate: 1.0 mL/min. • Column Temperature: 35±2° C. • Storage: in HDPE bottle
# The contents of the compound prepared in Example 2 were quantified by the area under each peak. Variations in the content of the compound were evaluated at room temperature, in a freezer, under accelerated storage conditions and under extreme storage conditions over the periods indicated in Table 6, and the results are shown in Table 6.
substance,measurement,setting,value
"[R—(R*,R*)]-2-(4-fluorophenyl)-β,δ-dihydroxy-5-(1-methylethyl)-3-phenyl-4-[(phenylamino)carbonyl]-1H-pyrrole-1-heptanoic acid hemicalcium salt [Example 2]",content of the compound,"40° C./75% RH (accelerated storage), 1 month",98.82%
same,content of the compound,"40° C./75% RH (accelerated storage), 2 months",98.33%
same,content of the compound,"40° C./75% RH (accelerated storage), 3 months",98.03%
same,content of the compound,"60° C./Dry (extreme storage), 1 month",98.01%
same,content of the compound,"at room temp., 1 month",98.72%
same,content of the compound,"at room temp., 2 months",98.58%
same,content of the compound,"at room temp., 3 months",98.12%
same,content of the compound,"at room temp., 6 months",98.56%
same,content of the compound,"in freezer, 1 month",99.74%
same,content of the compound,"in freezer, 2 months",99.31%
same,content of the compound,"in freezer, 3 months",100.19%
same,content of the compound,"in freezer, 6 months",98.11%

# Source: patent US7915302B2, “Crystal forms of pyrrolylheptanoic acid derivatives” (Dong-A Pharm. Co., Ltd., priority 2007, dated 2011)
